Calls of active or inactive are those of the source. The rule behind the calls is not given here.
Columns and labels:
Plasmodium falciparum [1] = test: Antiplasmodial activity against chloroquine-resistant Plasmodium falciparum assessed as inhibition of [3H]hypoxanthine incorporation incubated for 20 to 24 hr prior to [3H]hypoxanthine addition measured after 24 grs by microbeta scintillation counting; assay type: functional, organism-based
Plasmodium falciparum [2] = test: Antiplasmodial activity against chloroquine-sensitive Plasmodium falciparum assessed as inhibition of [3H]hypoxanthine incorporation incubated for 20 to 24 hr prior to [3H]hypoxanthine addition measured after 24 grs by microbeta scintillation counting; assay type: functional, organism-based
Plasmodium falciparum [3] = test: Antiplasmodial activity against chloroquine-resistant Plasmodium falciparum by schizont maturation assay; assay type: functional, organism-based
Plasmodium falciparum [4] = test: Antiplasmodial activity against chloroquine-sensitive Plasmodium falciparum by schizont maturation assay; assay type: functional, organism-based
[5] = Cytotoxicity against Homo sapiens (human) RBC assessed as cell lysis; assay type: cell-based; conditions: erythrocyte

Row | SMILES | IC50 (Plasmodium falciparum [1]) | IC90 (Plasmodium falciparum [1]) | IC50 (Plasmodium falciparum [2]) | IC90 (Plasmodium falciparum [2]) | Activity (Plasmodium falciparum [3]) | Activity (Plasmodium falciparum [4]) | Activity [5] | IC99 (Plasmodium falciparum [2])
1 | C[C@H](NC(=O)OC(C)(C)C)C(=O)Nc1nccs1 | 18.7 µM | 27.2 µM | 12.1 µM | 24.5 µM |  |  |  | 
2 | CC(C)(C)OC(=O)NCC(=O)Nc1nccs1 | 17.5 µM | 22.4 µM | 14.3 µM | 21.3 µM |  |  |  | 
3 | N[C@H](Cc1c[nH]c2ccccc12)C(=O)Nc1nccs1 | 19.5 µM | 17.1 µM | 11.1 µM | 16.1 µM |  |  |  | 
4 | CC(C)(C)OC(=O)N[C@@H](Cc1c[nH]c2ccccc12)C(=O)Nc1nccs1 | 4.87 µM | 9.12 µM | 3.45 µM | 7.89 µM | Active | Active | Non-toxic | 18.1 µM
5 | N[C@H](Cc1ccccc1)C(=O)Nc1nccs1 | 17.4 µM | 45.7 µM | 16.1 µM | 33.5 µM |  |  |  | 
6 | CC(C)(C)OC(=O)N[C@@H](Cc1ccccc1)C(=O)Nc1nccs1 | 7.41 µM | 18.6 µM | 5.62 µM | 16.3 µM |  |  |  | 
7 | CC(C)C[C@H](NC(=O)OC(C)(C)C)C(=O)Nc1nccs1 | 8.96 µM | 18.3 µM | 6.31 µM | 14.5 µM |  |  |  | 
8 | CC[C@H](C)[C@H](NC(=O)OC(C)(C)C)C(=O)Nc1nccs1 | 7.84 µM | 11.1 µM | 6.32 µM | 9.74 µM |  |  |  | 
9 | CC(C)[C@H](NC(=O)OC(C)(C)C)C(=O)Nc1nccs1 | 10.9 µM | 18.6 µM | 9.32 µM | 12.5 µM |  |  |  | 
10 | CC(C)(C)OC(=O)N[C@@H](CSCc1ccccc1)C(=O)Nc1nccs1 | 10.8 µM | 15.5 µM | 9.11 µM | 12.6 µM |  |  |  | 
11 | CC1CCCN1[C@H](NC(=O)OC(C)(C)C)C(=O)Nc1nccs1 (stereo partly drawn) | 6.12 µM | 12.7 µM | 4.89 µM | 11.1 µM | Active | Active | Non-toxic | 14.9 µM
12 | CSCC[C@H](NC(=O)OC(C)(C)C)C(=O)Nc1nccs1 | 18.2 µM | 31.4 µM | 10.2 µM | 29.1 µM |  |  |  | 
13 | CCN(CC)CCCC(C)Nc1ccnc2cc(Cl)ccc12 (stereo not drawn) [CHLOROQUINE] |  | 0.25 µM |  | 0.05 µM |  |  |  | 
